Experimental data reported in PMC6171417, “Carbonic anhydrase inhibition with a series of novel benzenesulfonamide-triazole conjugates” (Journal of Enzyme Inhibition and Medicinal Chemistry, 2018).
Like-named read-outs stand apart in the source and are kept apart here.

Tests used:
[1] = test system: COLO 205; experiment: cells; design: species or system NCI human tumour cell line panel; NCI one-dose anti-proliferative screen, human tumour cell line panel, growth inhibition percent (GI%); conditions: Homo sapiens, COLO 205; growth inhibition (GI%), single dose
[2] = test system: M14; experiment: cells; design: species or system NCI human tumour cell line panel; NCI one-dose anti-proliferative screen, human tumour cell line panel, growth inhibition percent (GI%); conditions: Homo sapiens, M14; growth inhibition (GI%), single dose
[3] = test system: OVCAR-4; experiment: cells; design: species or system NCI human tumour cell line panel; NCI one-dose anti-proliferative screen, human tumour cell line panel, growth inhibition percent (GI%); conditions: Homo sapiens, OVCAR-4; growth inhibition (GI%), single dose
[4] = test system: SF-268; experiment: cells; design: species or system NCI human tumour cell line panel; NCI one-dose anti-proliferative screen, human tumour cell line panel, growth inhibition percent (GI%); conditions: Homo sapiens, SF-268; growth inhibition (GI%), single dose
[5] = test system: TK-10; experiment: cells; design: species or system NCI human tumour cell line panel; NCI one-dose anti-proliferative screen, human tumour cell line panel, growth inhibition percent (GI%); conditions: Homo sapiens, TK-10; growth inhibition (GI%), single dose
[6] = test system: HCT-15; experiment: cells; design: species or system NCI human tumour cell line panel; conditions: Homo sapiens, HCT-15; growth inhibition (GI%), single dose
[7] = test system: MDA-MB-435; experiment: cells; design: species or system NCI human tumour cell line panel; conditions: Homo sapiens, MDA-MB-435; growth inhibition (GI%), single dose
[8] = test system: MDA-MB-468; experiment: cells; design: species or system NCI human tumour cell line panel; conditions: Homo sapiens, MDA-MB-468; growth inhibition (GI%), single dose
[9] = test system: MOLT-4; experiment: cells; design: species or system NCI human tumour cell line panel; conditions: Homo sapiens, MOLT-4; growth inhibition (GI%), single dose
[10] = test system: NCI-H226; experiment: cells; design: species or system NCI human tumour cell line panel; conditions: Homo sapiens, NCI-H226; growth inhibition (GI%), single dose
[11] = test system: NCI-H522; experiment: cells; design: species or system NCI human tumour cell line panel; conditions: Homo sapiens, NCI-H522; growth inhibition (GI%), single dose
[12] = test system: OVCAR-5; experiment: cells; design: species or system NCI human tumour cell line panel; conditions: Homo sapiens, OVCAR-5; growth inhibition (GI%), single dose
[13] = test system: SNB-19; experiment: cells; design: species or system NCI human tumour cell line panel; conditions: Homo sapiens, SNB-19; growth inhibition (GI%), single dose
[14] = test system: UACC-62; experiment: cells; design: species or system NCI human tumour cell line panel; conditions: Homo sapiens, UACC-62; growth inhibition (GI%), single dose
[15] = test system: BT-549; experiment: cells; design: species or system NCI human tumour cell line panel; NCI one-dose anti-proliferative screen, human tumour cell line panel, growth inhibition percent (GI%); conditions: Homo sapiens, BT-549; growth inhibition (GI%), single dose
[16] = test system: IGROV1; experiment: cells; design: species or system NCI human tumour cell line panel; NCI one-dose anti-proliferative screen, human tumour cell line panel, growth inhibition percent (GI%); conditions: Homo sapiens, IGROV-1; growth inhibition (GI%), single dose
[17] = test system: SK-MEL-2; experiment: cells; design: species or system NCI human tumour cell line panel; NCI one-dose anti-proliferative screen, human tumour cell line panel, growth inhibition percent (GI%); conditions: Homo sapiens, SK-MEL-2; growth inhibition (GI%), single dose
[18] = test system: SF-295; experiment: cells; design: species or system NCI human tumour cell line panel; NCI one-dose anti-proliferative screen, human tumour cell line panel, growth inhibition percent (GI%); conditions: Homo sapiens, SF-295; growth inhibition (GI%), single dose
[19] = biological target: T1, hCA I (Homo sapiens, UniProt P00915); experiment: stopped-flow CO2 hydrase assay; type: biochemical
T1 construct: gene CA1; recombinant, obtained in-house as reported earlier; cytosolic
T1 sequence (P00915 2-261): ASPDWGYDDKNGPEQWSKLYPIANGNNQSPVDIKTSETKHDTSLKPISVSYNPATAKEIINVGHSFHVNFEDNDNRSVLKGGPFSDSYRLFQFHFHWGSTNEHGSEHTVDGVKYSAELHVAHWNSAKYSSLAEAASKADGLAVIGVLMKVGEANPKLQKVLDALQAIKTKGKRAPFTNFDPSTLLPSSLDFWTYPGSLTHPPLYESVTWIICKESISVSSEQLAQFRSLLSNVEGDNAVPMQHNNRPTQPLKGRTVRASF
From the text: stopped-flow CO2 hydrase assay on hCA I

[20] = biological target: T2, hCA IX (Homo sapiens, UniProt Q16790); experiment: stopped-flow CO2 hydrase assay; type: biochemical
T2 construct: gene CA9; recombinant, obtained in-house as reported earlier
From the text: stopped-flow CO2 hydrase assay on hCA IX

[21] = biological target: T3, hCA IV (Homo sapiens, UniProt P22748); experiment: stopped-flow CO2 hydrase assay; type: biochemical
T3 construct: gene CA4; recombinant, obtained in-house as reported earlier
T3 sequence (P22748 19-284): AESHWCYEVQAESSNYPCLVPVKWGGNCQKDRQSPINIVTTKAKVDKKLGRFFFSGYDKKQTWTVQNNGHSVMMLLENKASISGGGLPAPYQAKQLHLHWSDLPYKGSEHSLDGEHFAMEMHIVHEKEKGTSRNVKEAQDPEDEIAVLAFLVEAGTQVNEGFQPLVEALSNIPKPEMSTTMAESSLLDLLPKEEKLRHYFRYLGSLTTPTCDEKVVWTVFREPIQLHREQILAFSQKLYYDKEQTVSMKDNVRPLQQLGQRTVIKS
From the text: stopped-flow CO2 hydrase assay on hCA IV

[22] = biological target: T4, hCA II (Homo sapiens, UniProt P00918); experiment: stopped-flow CO2 hydrase assay; type: biochemical
T4 construct: gene CA2; recombinant, obtained in-house as reported earlier; cytosolic
From the text: stopped-flow CO2 hydrase assay on hCA II

[23] = test system: HCC-2998; experiment: cells; design: species or system NCI human tumour cell line panel; NCI one-dose anti-proliferative screen, human tumour cell line panel, growth inhibition percent (GI%); conditions: Homo sapiens, HCC 2998; growth inhibition (GI%), single dose

SMILES	inhibition at 10 µM [2] [%]	inhibition at 10 µM [3] [%]	inhibition at 10 µM [4] [%]	inhibition at 10 µM [15] [%]	inhibition at 10 µM [16] [%]	inhibition at 10 µM [17] [%]	inhibition at 10 µM [18] [%]	Ki [19] [nM]	Ki [20] [nM]	Ki [21] [nM]	Ki [22] [nM]	also measured
N#Cc1nnn(-c2ccc(S(N)(=O)=O)cc2)c1N [compound 3, 3]	2.7	4.1	2.8									inhibition at 10 µM [1]: 5.1%; inhibition at 10 µM [5]: 9.2%
N#Cc1nnn(-c2ccc(S(N)(=O)=O)cc2)c1NC(=O)CCl [compound 5, 5]												inhibition at 10 µM [6]: 4.1%; inhibition at 10 µM [7]: 0.4%; inhibition at 10 µM [8]: 1.3%; inhibition at 10 µM [9]: 7.7%; inhibition at 10 µM [10]: 4.6%; inhibition at 10 µM [11]: 5.1%; inhibition at 10 µM [12]: 3.4%; inhibition at 10 µM [13]: 3.8%; inhibition at 10 µM [14]: 3.4%
N#Cc1nnn(-c2ccc(S(N)(=O)=O)cc2)c1NCC(=O)c1ccccc1 [compound 7, 7]	2.6	10.2	6.5	2	0.5	2.2						
N#Cc1nnn(-c2ccc(S(N)(=O)=O)cc2)c1/N=C/c1ccc(Cl)cc1 [compound 9, 9]				11.3			0.3					inhibition at 10 µM [5]: 7.6%
N#Cc1nnn(-c2ccc(S(N)(=O)=O)cc2)c1NS(=O)(=O)c1ccccc1 [compound 11, N-(4-cyano-1-(4-sulfamoylphenyl)-1H-1,2,3-triazol-5-yl)benzenesulfonamide]	3.3				3.3			5550	144	4520	356	
N#Cc1c(-c2ccc(Cl)cc2)nc2c(nnn2-c2ccc(S(N)(=O)=O)cc2)c1N [compound 16, 4-(7-amino-5-(4-chlorophenyl)-6-cyano-3H-[1,2,3]triazolo[4,5-b]pyridin-3-yl)benzenesulfonamide]		21.6	5.4		16.4		5.7	605	42.6	788	169	
CN(C)c1ccc(-c2nc3c(nnn3-c3ccc(S(N)(=O)=O)cc3)c(N)c2C#N)cc1 [compound 17, 4-(7-amino-6-cyano-5-(4-(dimethylamino)phenyl)-3H-[1,2,3]triazolo[4,5-b]pyridin-3-yl)benzenesulfonamide]	3.5	0.8	3.9	0.3	12.1	2.3	3.1	683		473	56.8	Ki ([20]; CO2 […], […] Hepes pH […] Na2SO4, […] phenol red, […] min pre-incubation at room temperature): 35.1 nM; inhibition at 10 µM [1]: 17%; inhibition at 10 µM [23]: 3.9%
Nc1nc(=S)[nH]c2c1nnn2-c1ccc(S(N)(=O)=O)cc1 [compound 18, 4-(7-amino-5-thioxo-4,5-dihydro-3H-[1,2,3]triazolo[4,5-d]pyrimidin-3-yl)benzenesulfonamide]		7.9	1.5					955	272	489	732	
CCn1c(=S)[nH]c2c(nnn2-c2ccc(S(N)(=O)=O)cc2)c1=N [compound 20, 4-(6-ethyl-7-imino-5-thioxo-4,5,6,7-tetrahydro-3H-[1,2,3]triazolo[4,5-d]pyrimidin-3-yl)benzenesulfonamide]						8.2		909	242	875	930	inhibition at 10 µM [23]: 2.2%
